Laboratory results published in patent publication US11345681B1, “Inhibitors of fibroblast growth factor receptor kinases” (Kinnate Biopharma Inc., priority 2020, dated 2022).
pIC50: −log10 of the molar value.

biological target: Wild type FGFR2 (Homo sapiens (Human), UniProt P21802); test: FGFR2 kinase assay (fluorescence-based microfluidic mobility shift assay); type: biochemical; conditions: wild type FGFR2 0.06 nM, 100 μM ATP, 80 minutes at room temperature; class symbols
Sequence (P21802 22-821): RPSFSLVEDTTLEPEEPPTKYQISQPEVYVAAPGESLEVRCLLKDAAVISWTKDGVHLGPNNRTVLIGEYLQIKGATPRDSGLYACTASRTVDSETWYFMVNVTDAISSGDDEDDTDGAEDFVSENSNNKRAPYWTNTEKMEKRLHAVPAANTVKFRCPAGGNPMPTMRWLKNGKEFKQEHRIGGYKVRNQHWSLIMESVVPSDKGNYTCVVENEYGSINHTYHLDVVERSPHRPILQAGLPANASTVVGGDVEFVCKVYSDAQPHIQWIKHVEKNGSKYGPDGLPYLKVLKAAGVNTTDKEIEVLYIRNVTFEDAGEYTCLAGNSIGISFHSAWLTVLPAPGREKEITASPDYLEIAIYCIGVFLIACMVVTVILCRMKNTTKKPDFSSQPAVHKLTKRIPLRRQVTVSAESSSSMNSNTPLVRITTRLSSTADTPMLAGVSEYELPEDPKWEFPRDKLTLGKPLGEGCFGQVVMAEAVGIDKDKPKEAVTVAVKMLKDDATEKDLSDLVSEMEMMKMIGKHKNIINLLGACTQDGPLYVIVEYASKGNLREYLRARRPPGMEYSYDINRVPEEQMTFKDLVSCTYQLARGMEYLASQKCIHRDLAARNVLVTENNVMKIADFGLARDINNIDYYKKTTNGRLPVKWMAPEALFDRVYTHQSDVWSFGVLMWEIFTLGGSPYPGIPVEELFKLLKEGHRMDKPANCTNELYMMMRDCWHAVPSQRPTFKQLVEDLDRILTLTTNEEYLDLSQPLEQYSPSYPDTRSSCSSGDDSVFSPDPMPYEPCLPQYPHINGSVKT

Structure (SMILES) | pIC50
C=CC(=O)N1C[C@@H](n2nc(C#Cc3ccc4nccnc4c3)c(C(N)=O)c2NC)C[C@@H]1COC [Example 64, 1-[(3S,5R)-5-(Methoxymethyl)-1-(prop-2-enoyl)pyrrolidin-3-yl]-5-(methylamino)-3-[2-(quinoxalin-6-yl)ethynyl] pyrazole-4-carboxamide] | ≥ 7.00
C=CC(=O)N1C[C@@H](n2nc(C#Cc3ccc4cc(C)cnc4c3)c(C(N)=O)c2NC)C[C@@H]1COC [Example 65, 1-((3S,5R)-1-Acryloyl-5-(methoxymethyl)pyrrolidin-3-yl)-5-(methylamino)-3-((3-methylquinolin-7-yl)ethynyl)-1H-pyrazole-4-carboxamide] | ≥ 7.00
C=CC(=O)N1C[C@@H](n2nc(C#Cc3ccc4ccnn4c3)c(C(N)=O)c2NC)C[C@@H]1COC [Example 67, 1-[(3S,5R)-5-(Methoxymethyl)-1-(prop-2-enoyl)pyrrolidin-3-yl]-5-(methylamino)-3-(2-[pyrazolo[1,5-a]pyridin-6-yl]ethynyl)pyrazole-4-carboxamide] | ≥ 7.00
C=CC(=O)N1C[C@@H](n2nc(C#Cc3ccc4c(ncn4CC)c3F)c(C(N)=O)c2NC)C[C@@H]1COC [Example 68, 1-((3S,5R)-1-Acryloyl-5-(methoxymethyl)pyrrolidin-3-yl)-3-((1-ethyl-4-fluoro-1H-benzo[d]imidazol-5-yl)ethynyl)-5-(methylamino)-1H-pyrazole-4-carboxamide] | ≥ 7.00
C=CC(=O)N1C[C@@H](n2nc(C#Cc3ccc4nc(C)cnc4c3)c(C(N)=O)c2NC)C[C@@H]1COC [Example 69, 1-((3S,5R)-1-Acryloyl-5-(methoxymethyl)pyrrolidin-3-yl)-5-(methylamino)-3-((2-methylquinoxalin-6-yl)ethynyl)-1H-pyrazole-4-carboxamide] | ≥ 7.00
C=CC(=O)N1C[C@@H](n2nc(C#Cc3ccc4c(c3)ncn4C(F)F)c(C(N)=O)c2NC)C[C@@H]1COC [Example 70, 3-[2-[1-(Difluoromethyl)-1,3-benzodiazol-5-yl]ethynyl]-1-[(3S,5R)-5-(methoxymethyl)-1-(prop-2-enoyl)pyrrolidin-3-yl]-5-(methylamino)pyrazole-4-carboxamide] | ≥ 7.00
C=CC(=O)N1C[C@@H](n2nc(C#Cc3ccc4c(ncn4C)c3F)c(C(N)=O)c2NC)C[C@@H]1COC [Example 71, 1-((3S,5R)-1-Acryloyl-5-(methoxymethyl)pyrrolidin-3-yl)-3-((4-fluoro-1-methyl-1H-benzo[d]imidazol-5-yl)ethynyl)-5-(methylamino)-1H-pyrazole-4-carboxamide] | ≥ 7.00
C=CC(=O)N1C[C@@H](n2nc(C#Cc3ccc4ncc(C)nc4c3)c(C(N)=O)c2NC)C[C@@H]1COC [Example 72, 1-((3S,5R)-1-Acryloyl-5-(methoxymethyl)pyrrolidin-3-yl)-5-(methylamino)-3-((3-methylquinoxalin-6-yl)ethynyl)-1H-pyrazole-4-carboxamide] | ≥ 7.00
C=CC(=O)N1C[C@@H](n2nc(C#Cc3ccc4ncn(C(F)F)c4c3)c(C(N)=O)c2NC)C[C@@H]1COC [Example 73, 3-[2-[3-(Difluoromethyl)-1,3-benzodiazol-5-yl]ethynyl]-1-[(3S,5R)-5-(methoxymethyl)-1-(prop-2-enoyl)pyrrolidin-3-yl]-5-(methylamino)pyrazole-4-carboxamide] | ≥ 7.00
C=CC(=O)N1C[C@@H](n2nc(C#Cc3ccc4c(C)ccnc4c3)c(C(N)=O)c2NC)C[C@@H]1COC [Example 74, 1-[(3S,5R)-5-(Methoxymethyl)-1-(prop-2-enoyl)pyrrolidin-3-yl]-5-(methylamino)-3-[2-(4-methylquinolin-7-yl)ethynyl]pyrazole-4-carboxamide] | ≥ 7.00
C=CC(=O)N1C[C@@H](n2nc(C#Cc3ccn4c(C)cnc4c3)c(C(N)=O)c2NC)C[C@@H]1COC [Example 75, 1-[(3S,5R)-5-(Methoxymethyl)-1-(prop-2-enoyl)pyrrolidin-3-yl]-5-(methylamino)-3-(2-[3-methylimidazo[1,2-a]pyridin-7-yl]ethynyl)pyrazole-4-carboxamide] | ≥ 7.00
C=CC(=O)N1C[C@@H](n2nc(C#Cc3cc4c(cc3F)ncn4C(F)F)c(C(N)=O)c2NC)C[C@@H]1COC [Example 76, 3-[2-[3-(Difluoromethyl)-6-fluoro-1,3-benzodiazol-5-yl]ethynyl]-1-[(3S,5R)-5-(methoxymethyl)-1-(prop-2-enoyl)pyrrolidin-3-yl]-5-(methylamino)pyrazole-4-carboxamide] | ≥ 7.00
C=CC(=O)N1C[C@@H](n2nc(C#Cc3cc4ncn(C(F)F)c4cc3F)c(C(N)=O)c2NC)C[C@@H]1COC [Example 77, 3-[2-[1-(Difluoromethyl)-6-fluoro-1,3-benzodiazol-5-yl]ethynyl]-1-[(3S,5R)-5-(methoxymethyl)-1-(prop-2-enoyl)pyrrolidin-3-yl]-5-(methylamino)pyrazole-4-carboxamide] | ≥ 7.00
C=CC(=O)N1C[C@@H](n2nc(C#Cc3cc4ncn(C)c4cc3F)c(C(N)=O)c2NC)C[C@@H]1COC(F)(F)F [Example 79, 3-[2-(6-Fluoro-1-methyl-1,3-benzodiazol-5-yl)ethynyl]-5-(methylamino)-1-[(3S,5R)-1-(prop-2-enoyl)-5-[(trifluoromethoxy)methyl]pyrrolidin-3-y]pyrazole-4-carboxamide] | ≥ 7.00
C=CC(=O)N1C[C@@H](n2nc(C#Cc3cc4ncn(CC)c4cc3F)c(C(N)=O)c2NC)C[C@@H]1COC(F)(F)F [Example 80, 3-[2-(1-Ethyl-6-fluoro-1,3-benzodiazol-5-yl)ethynyl]-5-(methylamino)-1-[(3S,5R)-1-(prop-2-enoyl)-5-[(trifluoromethoxy)methyl]pyrrolidin-3-yl]pyrazole-4-carboxamide] | ≥ 7.00
C=CC(=O)N1C[C@@H](n2nc(C#Cc3cc4ncn(C(F)F)c4cc3F)c(C(N)=O)c2NC)C[C@@H]1COC(F)(F)F [Example 81, 3-[2-[1-(Difluoromethyl)-6-fluoro-1,3-benzodiazol-5-yl]ethynyl]-5-(methylamino)-1-[(3S,5R)-1-(prop-2-enoyl)-5-[(trifluoromethoxy)methyl]pyrrolidin-3-yl]pyrazole-4-carboxamide] | ≥ 7.00
C=CC(=O)N1C[C@@H](n2nc(C#Cc3cc4nc(C)n(C)c4cc3Cl)c(C(N)=O)c2NC)C[C@@H]1COC [Example 82, 3-[2-(6-Chloro-1,2-dimethyl-1,3-benzodiazol-5-yl)ethynyl]-1-[(3S,5R)-5-(methoxymethyl)-1-(prop-2-enoyl)pyrrolidin-3-yl]-5-(methylamino)pyrazole-4-carboxamide] | ≥ 7.00
C=CC(=O)N1C[C@@H](n2nc(C#Cc3ccc4ccc(C)nc4c3)c(C(N)=O)c2NC)C[C@@H]1COC [Example 83, 1-[(3S,5R)-5-(Methoxymethyl)-1-(prop-2-enoyl)pyrrolidin-3-yl]-5-(methylamino)-3-[2-(2-methylquinolin-7-yl)ethynyl]pyrazole-4-carboxamide] | ≥ 7.00
C=CC(=O)N1C[C@@H](n2nc(C#Cc3c(F)cc4c(ncn4C)c3F)c(C(N)=O)c2NC)C[C@@H]1COC(F)(F)F [Example 84] | ≥ 7.00
C=CC(=O)N1C[C@@H](n2nc(C#Cc3c(F)cc4c(ncn4CC)c3F)c(C(N)=O)c2NC)C[C@@H]1COC(F)(F)F [Example 85, 3-[2-(1-Ethyl-4,6-difluoro-1,3-benzodiazol-5-yl)ethynyl]-5-(methylamino)-1-[(3S,5R)-1-(prop-2-enoyl)-5-[(trifluoromethoxy)methyl]pyrrolidin-3-yl]pyrazole-4-carboxamide] | ≥ 7.00
C=CC(=O)N1C[C@@H](n2nc(C#Cc3cc4nc[nH]c4cc3F)c(C(N)=O)c2NC)C[C@@H]1COC(F)(F)F [Example 86, 3-[2-(6-Fluoro-1H-1,3-benzodiazol-5-yl)ethynyl]-5-(methylamino)-1-[(3S,5R)-1-(prop-2-enoyl)-5-[(trifluoromethoxy)methyl]pyrrolidin-3-yl]pyrazole-4-carboxamide] | ≥ 7.00
C=CC(=O)N1C[C@@H](n2nc(C#Cc3cc4nc(C)[nH]c4cc3Cl)c(C(N)=O)c2NC)C[C@@H]1COC(F)(F)F [Example 87, 3-[2-(6-Chloro-2-methyl-1H-1,3-benzodiazol-5-yl)ethynyl]-5-(methylamino)-1-[(3S,5R)-1-(prop-2-enoyl)-5-[(trifluoromethoxy)methyl]pyrrolidin-3-yl]pyrazole-4-carboxamide] | ≥ 7.00
C=CC(=O)N1C[C@@H](n2nc(C#Cc3cc4ncn(C)c4cc3Cl)c(C(N)=O)c2NC)C[C@@H]1COC [Example 88, 3-[2-(6-Chloro-1-methyl-1,3-benzodiazol-5-yl)ethynyl]-1-[(3S,5R)-5-(methoxymethyl)-1-(prop-2-enoyl)pyrrolidin-3-yl]-5-(methylamino)pyrazole-4-carboxamide] | ≥ 7.00
C=CC(=O)N1C[C@@H](n2nc(C#Cc3cc4ncn(CC)c4cc3Cl)c(C(N)=O)c2NC)C[C@@H]1COC [Example 89, 3-[2-(6-Chloro-1-ethyl-1,3-benzodiazol-5-yl)ethynyl]-1-[(3S,5R)-5-(methoxymethyl)-1-(prop-2-enoyl)pyrrolidin-3-yl]-5-(methylamino)pyrazole-4-carboxamide] | ≥ 7.00
C=CC(=O)N1C[C@@H](n2nc(C#Cc3cc4nc[nH]c4cc3F)c(C(N)=O)c2NC)C[C@@H]1COC [Example 90, 3-[2-(6-Fluoro-1H-1,3-benzodiazol-5-yl)ethynyl]-1-[(3S,5R)-5-(methoxymethyl)-1-(prop-2-enoyl)pyrrolidin-3-yl]-5-(methylamino)pyrazole-4-carboxamide] | ≥ 7.00
C=CC(=O)N1C[C@@H](n2nc(C#Cc3cc4nc(C)[nH]c4cc3F)c(C(N)=O)c2NC)C[C@@H]1COC [Example 91, 3-[2-(6-Fluoro-2-methyl-1H-1,3-benzodiazol-5-yl)ethynyl]-1-[(3S,5R)-5-(methoxymethyl)-1-(prop-2-enoyl)pyrrolidin-3-yl]-5-(methylamino)pyrazole-4-carboxamide] | ≥ 7.00
C=CC(=O)N1C[C@@H](n2nc(C#Cc3cc4nc[nH]c4cc3Cl)c(C(N)=O)c2NC)C[C@@H]1COC [Example 92, 3-[2-(6-Chloro-1H-1,3-benzodiazol-5-yl)ethynyl]-1-[(3S,5R)-5-(methoxymethyl)-1-(prop-2-enoyl)pyrrolidin-3-yl]-5-(methylamino)pyrazole-4-carboxamide] | ≥ 7.00
